From patent EP3293246A1, “LUBRICANT COMPOSITIONS CONTAINING DIUREA COMPOUNDS” (BASF SE, priority 2016, dated 2018)

Assay: Solubility 0.5% in base oil Yubase 4, visual inspection of appearance
Assay type: physicochemical
Conditions: 0.5 g compound stirred with 99.5 g Yubase 4 at 100°C for 4 hours, cooled to room temperature
Protocol: For the determination of the solubilities, 0.5 g of the compound under test was stirred with 99.5 g of Yubase 4 at 100°C for 4 hours and subsequently cooled to room temperature. The appearance of the solution was assessed by visual inspection.

Solubility 0.5% in Yubase 4; visible appearance | Structure (SMILES)
no clear solution | Cc1ccc(NC(=O)NC(C)CCCC(C)C)cc1NC(=O)NC(C)CCCC(C)C (stereo not drawn) [Example 6]
no clear solution | CCCCC(CC)CNC(=O)Nc1ccc(C)c(NC(=O)NCC(CC)CCCC)c1 (stereo not drawn) [Example 1]
no clear solution | CCCCCCCCC=CCCCCCCCCNC(=O)Nc1ccc(C)c(NC(=O)NCCCCCCCCC=CCCCCCCCC)c1 [Example 5]
